The source of these data is patent US10494363B2, “Non-steroidal glucocorticoid receptor modulators for local drug delivery” (LEO PHARMA A/S, priority 2015, dated 2019).

A value given as a limit tells only on which side of the number the result lay.

The subject of data set [1] is TNF alpha release from human PBMCs. Put plainly: Inhibition of TNF alpha release from human PBMCs. In kind it is cell-based. The conditions noted are these: LPS 1 μg/ml, 18 hours, AlphaLISA. The essentials: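 Fresh or thawed PBMCs in serum-free medium with 0.5% HSA, stimulated with 1 μg/ml LPS plus titrated compound for 18 h at 37° C. TNF-a in supernatant by AlphaLISA; window set with a reference PDE4 inhibitor at 100×IC50. EC50 and Emax from sigmoidal fits.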
On the technique in general: Alpha assays give light when donor and acceptor beads are brought close together.

Data set [2] can be described thus: Human liver microsomes (HLM) assay. The format is in vitro ADME. The conditions noted are these: hepatic extraction ratio; 0.5 μM compound, 0.5 mg/mL microsomes, NADPH, 37° C. The essentials:
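Compound at 0.5 μM incubated at 37° C. with human liver microsomes (0.5 mg/mL) and NADPH (1 mM) in phosphate buffer pH 7.4, 1% organic solvent; sampled 0-30 minutes. Clapp (mL/min/kg) and Eh (%) derived from depletion rate constant.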
A general note: Microsomes from liver hold many membrane-bound enzymes, among them those of drug oxidation.

Data set [3] has as its target T1, glucocorticoid receptor (GR), recombinant full-length receptor protein (Homo sapiens, UniProt P04150).
T1 construct: 4 nM recombinant, full-length receptor protein was incubated with increasing concentrations of GR ligand; purchased Life Technologies A-15897
T1 sequence (P04150 1-777): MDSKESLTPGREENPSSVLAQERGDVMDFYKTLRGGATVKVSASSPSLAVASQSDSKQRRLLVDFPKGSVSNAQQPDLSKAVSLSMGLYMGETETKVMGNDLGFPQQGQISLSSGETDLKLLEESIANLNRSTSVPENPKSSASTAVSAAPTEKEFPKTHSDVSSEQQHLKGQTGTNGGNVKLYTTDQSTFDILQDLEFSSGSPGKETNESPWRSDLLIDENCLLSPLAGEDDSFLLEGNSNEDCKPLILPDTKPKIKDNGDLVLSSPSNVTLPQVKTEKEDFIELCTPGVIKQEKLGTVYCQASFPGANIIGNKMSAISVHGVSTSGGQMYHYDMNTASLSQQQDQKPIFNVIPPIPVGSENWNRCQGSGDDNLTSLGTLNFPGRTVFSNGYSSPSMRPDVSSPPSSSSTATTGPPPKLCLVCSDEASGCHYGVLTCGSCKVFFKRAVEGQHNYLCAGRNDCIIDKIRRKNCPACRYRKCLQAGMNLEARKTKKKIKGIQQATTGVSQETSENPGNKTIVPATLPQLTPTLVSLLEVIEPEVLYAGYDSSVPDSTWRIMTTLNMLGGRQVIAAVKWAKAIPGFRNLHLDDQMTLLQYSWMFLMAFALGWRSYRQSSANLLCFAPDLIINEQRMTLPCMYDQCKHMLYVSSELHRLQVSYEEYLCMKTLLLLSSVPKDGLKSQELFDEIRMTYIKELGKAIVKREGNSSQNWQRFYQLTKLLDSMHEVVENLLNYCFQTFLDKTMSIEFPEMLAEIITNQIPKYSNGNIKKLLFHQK
The data set can be described thus: Glucocorticoid receptor binding assay (fluorescence polarization kit). The conditions noted are these: 4 nM receptor, 2.5 nM Fluormone GS1 tracer, 2h room temperature, read-out: GR binding ABS IC50. Here is the method:
Test compounds were diluted in DMSO over seven orders of magnitude, further diluted in assay buffer and distributed into 384-well plates. The sensitivity limit of this assay was 2-4 nM.
Data were processed by sigmoidal curve fitting.
Absolute (Abs) IC50 and Emax were determined from the curve fits.
A general note: Fluorescence polarisation rises when a labelled molecule tumbles more slowly, as on binding a larger partner.

What is called EC50 is the concentration giving half of the maximal effect. Higher therefore signals a need for much substance. As usually defined, the IC50 is the concentration that inhibits the measured activity by half.

The compound `Cc1ncc(C(=O)N[C@@H](C)[C@H](Oc2ccc(C(=O)O[C@H]3CCCN(C(=O)[C@H]4COC(=O)C4)C3)cc2)c2ccc(C3CC3)cc2)s1` [Compound 36, [(3S)-1-[(3R)-5-oxotetrahydrofuran-3-carbonyl]-3-piperidyl] 4-[(1R,2S)-1-(4-cyclopropylphenyl)-2-[(2-methylthiazole-5-carbonyl)amino]propoxy]benzoate] gave a 50% effective concentration (EC50) in data set [1] (PBMC) of under 100 nM. In data set [2], the “HLM assay Eh (%)” value is “* (extraction ratio (Eh)>90%)”. For the same compound, in data set [3], the IC50 was under 100 nM.
On to `C[C@H](NC(=O)[C@H]1CCCO1)[C@H](Oc1ccc(C(=O)O[C@H]2CCCN(C(=O)[C@H]3COC(=O)C3)C2)cc1)c1ccc(C2CC2)cc1` [Compound 37, [(3S)-1-[(3R)-5-oxotetrahydrofuran-3-carbonyl]-3-piperidyl] 4-[(1R,2S)-1-(4-cyclopropylphenyl)-2-[[(2R)-tetrahydrofuran-2-carbonyl]amino]propoxy]benzoate], for which the EC50 in data set [1] (PBMC) is under 100 nM. Further, in data set [2], the “HLM assay Eh (%)” value is “* (extraction ratio (Eh)>90%)”. Moreover, the concentration for half-maximal inhibition (IC50) in data set [3] was under 100 nM.
As to `C[C@H](NC(=O)c1cnnn1C)[C@H](Oc1ccc(C(=O)O[C@H]2CCCN(C(=O)[C@H]3COC(=O)C3)C2)cc1)c1ccc(C2CC2)cc1` [Compound 38, [(3S)-1-[(3R)-5-oxotetrahydrofuran-3-carbonyl]-3-piperidyl] 4-[(1R,2S)-1-(4-cyclopropylphenyl)-2-[(3-methyltriazole-4-carbonyl)amino]propoxy]benzoate], the EC50 in data set [1] is 100 to 300 nM. In addition, the “HLM assay Eh (%)” value in data set [2] was “* (extraction ratio (Eh)>90%)”. Besides, the 50% inhibitory concentration (IC50) in data set [3] is under 100 nM.
On to `C[C@H](NC(=O)c1ncon1)[C@H](Oc1ccc(C(=O)O[C@H]2CCCN(C(=O)[C@H]3COC(=O)C3)C2)cc1)c1ccc(C2CC2)cc1` [Compound 39, [(3S)-1-[(3R)-5-oxotetrahydrofuran-3-carbonyl]-3-piperidyl] 4-[(1R,2S)-1-(4-cyclopropylphenyl)-2-(1,2,4-oxadiazole-3-carbonylamino)propoxy]benzoate], for which the EC50 in data set [1] (PBMC) was under 100 nM. Further, the “HLM assay Eh (%)” value in data set [2] is recorded as “* (extraction ratio (Eh)>90%)”. The IC50 in data set [3] is under 100 nM.
The compound `C[C@H](NC(=O)c1nccn1C)[C@H](Oc1ccc(C(=O)O[C@H]2CCCN(C(=O)[C@H]3COC(=O)C3)C2)cc1)c1ccc(C2CC2)cc1` [Compound 40, [(3S)-1-[(3R)-5-oxotetrahydrofuran-3-carbonyl]-3-piperidyl] 4-[(1R,2S)-1-(4-cyclopropylphenyl)-2-[(1-methylimidazole-2-carbonyl)amino]propoxy]benzoate] showed a concentration for a half-maximal effect (EC50) in data set [1] (PBMC) of under 100 nM. Also, in data set [2], the “HLM assay Eh (%)” value is “* (extraction ratio (Eh)>90%)”. Moreover, the concentration for half-maximal inhibition (IC50) in data set [3] was under 100 nM.
`Cc1cc(C(=O)N[C@@H](C)[C@H](Oc2ccc(C(=O)O[C@H]3CCCN(C(=O)[C@H]4COC(=O)C4)C3)cc2)c2ccc(C3CC3)cc2)on1` [Compound 41, [(3S)-1-[(3R)-5-oxotetrahydrofuran-3-carbonyl]-3-piperidyl] 4-[(1R,2S)-1-(4-cyclopropylphenyl)-2-[(3-methylisoxazole-5-carbonyl)amino]propoxy]benzoate] came in with an EC50 in data set [1] (PBMC) of under 100 nM. Moreover, the “HLM assay Eh (%)” value in data set [2] was “* (extraction ratio (Eh)>90%)”. Moreover, in data set [3], the IC50 is under 100 nM.
The compound `Cc1nc(C(=O)N[C@@H](C)[C@H](Oc2ccc(C(=O)O[C@H]3CCCN(C(=O)[C@H]4COC(=O)C4)C3)cc2)c2ccc(C3CC3)cc2)no1` [Compound 42, [(3S)-1-[(3R)-5-oxotetrahydrofuran-3-carbonyl]-3-piperidyl] 4-[(1R,2S)-1-(4-cyclopropylphenyl)-2-[(5-methyl-1,2,4-oxadiazole-3-carbonyl)amino]propoxy]benzoate] had a 50% effective concentration (EC50) in data set [1] (PBMC) of under 100 nM. Also, in data set [2], the “HLM assay Eh (%)” value is “* (extraction ratio (Eh)>90%)”. Also, the IC50 in data set [3] was under 100 nM.
Compound `C[C@H](NC(=O)c1cn(C)cn1)[C@H](Oc1ccc(C(=O)O[C@H]2CCCN(C(=O)[C@H]3COC(=O)C3)C2)cc1)c1ccc(C2CC2)cc1` [Compound 43, [(3S)-1-[(3R)-5-oxotetrahydrofuran-3-carbonyl]-3-piperidyl] 4-[(1R,2S)-1-(4-cyclopropylphenyl)-2-[(1-methylimidazole-4-carbonyl)amino]propoxy]benzoate] gave an EC50 in data set [1] (PBMC) of under 100 nM. Also, the “HLM assay Eh (%)” value in data set [2] was “* (extraction ratio (Eh)>90%)”. Further, in data set [3], the IC50 was under 100 nM.
Take `C[C@H](NC(=O)c1ccsn1)[C@H](Oc1ccc(C(=O)O[C@H]2CCCN(C(=O)[C@H]3COC(=O)C3)C2)cc1)c1ccc(C2CC2)cc1` [Compound 44, [(3S)-1-[(3R)-5-oxotetrahydrofuran-3-carbonyl]-3-piperidyl] 4-[(1R,2S)-1-(4-cyclopropylphenyl)-2-(isothiazole-3-carbonylamino)propoxy]benzoate]: the concentration giving a half-maximal response (EC50) in data set [1] (PBMC) is under 100 nM. The “HLM assay Eh (%)” value in data set [2] is “* (extraction ratio (Eh)>90%)”. Besides, the IC50 in data set [3] was under 100 nM.
In data set [1] (PBMC), `Cc1nocc1C(=O)N[C@@H](C)[C@H](Oc1ccc(C(=O)O[C@H]2CCCN(C(=O)[C@H]3COC(=O)C3)C2)cc1)c1ccc(C2CC2)cc1` [Compound 45, [(3S)-1-[(3R)-5-oxotetrahydrofuran-3-carbonyl]-3-piperidyl] 4-[(1R,2S)-1-(4-cyclopropylphenyl)-2-[(3-methylisoxazole-4-carbonyl)amino]propoxy]benzoate] displayed an EC50 of under 100 nM. Besides, the “HLM assay Eh (%)” value in data set [2] was “* (extraction ratio (Eh)>90%)”. Also, in data set [3], the IC50 is under 100 nM.
`C[C@H](NC(=O)c1nccs1)[C@H](Oc1ccc(C(=O)O[C@H]2CCCN(C(=O)[C@H]3COC(=O)C3)C2)cc1)c1ccc(C2CC2)cc1` [Compound 46, [(3S)-1-[(3R)-5-oxotetrahydrofuran-3-carbonyl]-3-piperidyl] 4-[(1R,2S)-1-(4-cyclopropylphenyl)-2-(thiazole-2-carbonylamino)propoxy]benzoate]: the EC50 in data set [1] (PBMC) was under 100 nM. Further, the “HLM assay Eh (%)” value in data set [2] is given as “** (50%<extraction ratio (Eh)<90%)”. In addition, the IC50 in data set [3] was under 100 nM.
`C[C@H](NC(=O)c1ccns1)[C@H](Oc1ccc(C(=O)O[C@H]2CCCN(C(=O)[C@H]3COC(=O)C3)C2)cc1)c1ccc(C2CC2)cc1` [Compound 47, [(3S)-1-[(3R)-5-oxotetrahydrofuran-3-carbonyl]-3-piperidyl] 4-[(1R,2S)-1-(4-cyclopropylphenyl)-2-(isothiazole-5-carbonylamino)propoxy]benzoate]: the EC50 in data set [1] (PBMC) is under 100 nM. For the same compound, the “HLM assay Eh (%)” value in data set [2] was “* (extraction ratio (Eh)>90%)”. In addition, in data set [3], the IC50 was under 100 nM.
`Cc1sncc1C(=O)N[C@@H](C)[C@H](Oc1ccc(C(=O)O[C@H]2CCCN(C(=O)[C@H]3COC(=O)C3)C2)cc1)c1ccc(C2CC2)cc1` [Compound 48, [(3S)-1-[(3R)-5-oxotetrahydrofuran-3-carbonyl]-3-piperidyl] 4-[(1R,2S)-1-(4-cyclopropylphenyl)-2-[(5-methylisothiazole-4-carbonyl)amino]propoxy]benzoate] came in with a 50% effective concentration (EC50) in data set [1] (PBMC) of under 100 nM. Besides, in data set [2], the “HLM assay Eh (%)” value is recorded as “* (extraction ratio (Eh)>90%)”. Moreover, the IC50 in data set [3] was under 100 nM.
Compound `C[C@H](NC(=O)c1ncco1)[C@H](Oc1ccc(C(=O)O[C@H]2CCCN(C(=O)[C@H]3COC(=O)C3)C2)cc1)c1ccc(C2CC2)cc1` [Compound 49, [(3S)-1-[(3R)-5-oxotetrahydrofuran-3-carbonyl]-3-piperidyl] 4-[(1R,2S)-1-(4-cyclopropylphenyl)-2-(oxazole-2-carbonylamino)propoxy]benzoate] returned an EC50 in data set [1] (PBMC) of under 100 nM. Moreover, in data set [2], the “HLM assay Eh (%)” value is on record as “* (extraction ratio (Eh)>90%)”. Also, the IC50 in data set [3] is under 100 nM.
As for `C[C@H](NC(=O)c1cnco1)[C@H](Oc1ccc(C(=O)O[C@H]2CCCN(C(=O)[C@H]3COC(=O)C3)C2)cc1)c1ccc(C2CC2)cc1` [Compound 50, [(3S)-1-[(3R)-5-oxotetrahydrofuran-3-carbonyl]-3-piperidyl] 4-[(1R,2S)-1-(4-cyclopropylphenyl)-2-(oxazole-5-carbonylamino)propoxy]benzoate], the EC50 in data set [1] (PBMC) is under 100 nM. For the same compound, the “HLM assay Eh (%)” value in data set [2] was “* (extraction ratio (Eh)>90%)”. Further, the concentration for half-maximal inhibition (IC50) in data set [3] is under 100 nM.
